Laboratory results taken from ChEMBL document CHEMBL1201862, “PubChem BioAssay data set” (2004).
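96-well plates; 48 h exposure; 5 concentrations. Endpoints by linear interpolation between flanking doses. Not reached: highest tested concentration assigned. GI50 is the concentration that inhibits growth by half.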 Calls of active or inactive are those of the source. Rule as the data show it: active = GI50 up to about 1.1 µM and inactive = higher.

What was measured:
Assay in all cases: growth of human tumour cells (NCI), 48 h
[1] = test system: SN12C
[2] = test system: SK-OV-3
[3] = test system: DMS-273
[4] = test system: M19-MEL
[5] = test system: K562
[6] = test system: OVCAR-4
[7] = test system: LXFL 529
[8] = test system: CCRF-CEM
[9] = test system: SF-295
[10] = test system: HOP-62
[11] = test system: 786-0
[12] = test system: SF-539
[13] = test system: M14
[14] = test system: A549
[15] = test system: HOP-18
[16] = test system: CAKI-1
[17] = test system: HT-29
[18] = test system: OVCAR-8
[19] = test system: UACC-257
[20] = test system: SNB-19
[21] = test system: IGROV-1
[22] = test system: MOLT-4
[23] = test system: KM-20L2
[24] = test system: NCI-H460
[25] = test system: EKVX
[26] = test system: HCC 2998
[27] = test system: HL-60
[28] = test system: SNB-75
[29] = test system: HCT-15
[30] = test system: A498
[31] = test system: NCI-H23
[32] = test system: SNB-78
[33] = test system: UACC-62
[34] = test system: HCT-116
[35] = test system: Malme-3M
[36] = test system: RPMI-8226
[37] = test system: UO-31
[38] = test system: SR
[39] = test system: SK-MEL-28
[40] = test system: TK-10
[41] = test system: RXF 393
[42] = test system: DLD-1
[43] = test system: HOP-92
[44] = test system: LOX IMVI
[45] = test system: U-251
[46] = test system: NCI-H522
[47] = test system: DMS-114
[48] = test system: SK-MEL-5
[49] = test system: SW-620
[50] = test system: SF-268
[51] = test system: ACHN
[52] = test system: XF498
[53] = test system: KM12
[54] = test system: OVCAR-5
[55] = test system: SK-MEL-2
[56] = test system: COLO 205
[57] = test system: OVCAR-3
[58] = test system: NCI-H226

CCCCCCCCCOC(=S)NCCCCC was tested, and the GI50 [1] was 26.2 µM (inactive), the GI50 [2] was 29.4 µM (inactive) and the GI50 [3] was 25.5 µM (inactive). For the same compound, the GI50 [4] was 39.3 µM (inactive), the GI50 [5] was 27 µM (inactive) and the GI50 [6] was 33.9 µM (inactive). The GI50 [7] was 33.3 µM (inactive), the GI50 [8] was 22.9 µM (inactive) and the GI50 [9] was 47.1 µM (inactive). The GI50 [10] was 26.4 µM (inactive), the GI50 [11] was 35.6 µM (inactive) and the GI50 [12] was 20.8 µM (inactive). The GI50 [13] was 28.6 µM (inactive), the GI50 [14] was 28.2 µM (inactive) and the GI50 [15] was 33.4 µM (inactive). For the same compound, the GI50 [16] was 27.8 µM (inactive), the GI50 [17] was 26.8 µM (inactive) and the GI50 [18] was 38.7 µM (inactive). For the same compound, the GI50 [19] was 24.8 µM (inactive), the GI50 [20] was 35.1 µM (inactive) and the GI50 [21] was 38.4 µM (inactive). For the same compound, the GI50 [22] was 19 µM (inactive), the GI50 [23] was 23.8 µM (inactive) and the GI50 [24] was 28 µM (inactive). For the same compound, the GI50 [25] was 35.2 µM (inactive), the GI50 [26] was 34.4 µM (inactive) and the GI50 [27] was 16.6 µM (inactive). The GI50 [28] was 42.3 µM (inactive), the GI50 [29] was 23.9 µM and the GI50 [30] was 24.3 µM (inactive). The GI50 [31] was 26.7 µM (inactive), the GI50 [32] was 40.6 µM (inactive) and the GI50 [33] was 29.2 µM (inactive). For the same compound, the GI50 [34] was 22.2 µM (inactive), the GI50 [35] was 29.8 µM (inactive) and the GI50 [36] was 19.5 µM (inactive). The GI50 [37] was 17.2 µM (inactive), the GI50 [38] was 20.5 µM (inactive) and the GI50 [39] was 38.7 µM (inactive). The GI50 [40] was 18.4 µM (inactive), the GI50 [41] was 19.9 µM (inactive) and the GI50 [42] was 35.6 µM (inactive). The GI50 [43] was 20.7 µM (inactive), the GI50 [44] was 15.6 µM (inactive) and the GI50 [45] was 21.7 µM (inactive). The GI50 [46] was 20.3 µM (inactive), the GI50 [47] was 21.7 µM (inactive) and the GI50 [48] was 21.5 µM (inactive). The GI50 [49] was 32.7 µM (inactive), the GI50 [50] was 37.2 µM (inactive) and the GI50 [51] was 29.1 µM (inactive).

For CC(C)CCC[C@@H](C)[C@H]1CC[C@H]2[C@@H]3CC=C4CC(OCCCCN(O)CCCSC5OC(CO)C(O)C(O)C5O)CC[C@]4(C)[C@H]3CC[C@]12C (some centres not stated), the GI50 [1] was > 100 µM (inactive), the GI50 [52] was > 100 µM (inactive) and the GI50 [2] was > 100 µM (inactive). For the same compound, the GI50 [3] was 32 µM (inactive), the GI50 [4] was > 100 µM (inactive) and the GI50 [5] was 36.3 µM (inactive). The GI50 [53] was 33.5 µM (inactive), the GI50 [54] was > 100 µM (inactive) and the GI50 [6] was > 100 µM (inactive). For the same compound, the GI50 [7] was 23 µM (inactive), the GI50 [8] was 26.4 µM (inactive) and the GI50 [9] was > 100 µM (inactive). The GI50 [10] was 94.2 µM (inactive), the GI50 [11] was 18 µM (inactive) and the GI50 [12] was 18.8 µM (inactive). The GI50 [13] was 25 µM (inactive), the GI50 [14] was 42.2 µM (inactive) and the GI50 [16] was > 100 µM (inactive). The GI50 [17] was 30.4 µM (inactive), the GI50 [18] was 74.1 µM (inactive) and the GI50 [19] was > 100 µM (inactive). The GI50 [20] was > 100 µM (inactive), the GI50 [21] was 22.1 µM (inactive) and the GI50 [22] was 34 µM (inactive). For the same compound, the GI50 [23] was > 100 µM (inactive), the GI50 [24] was 39.9 µM (inactive) and the GI50 [25] was > 100 µM (inactive). The GI50 [27] was 25.8 µM (inactive), the GI50 [28] was 65.8 µM (inactive) and the GI50 [29] was 43.4 µM. The GI50 [30] was > 100 µM (inactive), the GI50 [31] was 45.2 µM (inactive) and the GI50 [32] was 74.8 µM (inactive). For the same compound, the GI50 [33] was > 100 µM (inactive), the GI50 [55] was 17.4 µM (inactive) and the GI50 [34] was 56.1 µM (inactive). For the same compound, the GI50 [56] was 25.6 µM (inactive), the GI50 [36] was > 100 µM (inactive) and the GI50 [37] was > 100 µM (inactive). For the same compound, the GI50 [38] was 34.7 µM (inactive), the GI50 [39] was > 100 µM (inactive) and the GI50 [40] was > 100 µM (inactive). For the same compound, the GI50 [41] was 79.3 µM (inactive), the GI50 [42] was 56.4 µM (inactive) and the GI50 [43] was > 100 µM (inactive). The GI50 [44] was 21.8 µM (inactive), the GI50 [45] was 30.2 µM (inactive) and the GI50 [46] was 23.1 µM (inactive). For the same compound, the GI50 [47] was 25.5 µM (inactive), the GI50 [48] was 70.5 µM (inactive) and the GI50 [49] was 22.6 µM (inactive). For the same compound, the GI50 [50] was 52.7 µM (inactive) and the GI50 [51] was > 100 µM (inactive).

For O=C(CSc1nc(-c2ccccc2)c(-c2ccccc2)[nH]1)N/N=C/c1ccc([N+](=O)[O-])cc1, the GI50 [1] was 16.2 µM (inactive), the GI50 [52] was 13.2 µM (inactive) and the GI50 [2] was 14.5 µM (inactive). The GI50 [3] was 14.1 µM (inactive), the GI50 [4] was 17.1 µM (inactive) and the GI50 [53] was 17.3 µM (inactive). The GI50 [57] was 15.1 µM (inactive), the GI50 [6] was 23 µM (inactive) and the GI50 [7] was 20.4 µM (inactive). The GI50 [8] was 21.4 µM (inactive), the GI50 [9] was 19.8 µM (inactive) and the GI50 [10] was 17.7 µM (inactive). For the same compound, the GI50 [11] was 16.8 µM (inactive), the GI50 [12] was 16 µM (inactive) and the GI50 [13] was 17.4 µM (inactive). The GI50 [14] was 29.6 µM (inactive), the GI50 [17] was 19.2 µM (inactive) and the GI50 [18] was 10.3 µM (inactive). The GI50 [19] was 19 µM (inactive), the GI50 [21] was 17.6 µM (inactive) and the GI50 [22] was 18.6 µM (inactive). The GI50 [23] was 8.87 µM (inactive), the GI50 [24] was 19.4 µM (inactive) and the GI50 [27] was 34.8 µM (inactive). For the same compound, the GI50 [28] was 21.8 µM (inactive), the GI50 [29] was 14 µM and the GI50 [30] was 14 µM (inactive). The GI50 [31] was 14.7 µM (inactive), the GI50 [32] was 21.2 µM (inactive) and the GI50 [55] was 13.8 µM (inactive). The GI50 [34] was 18.7 µM (inactive), the GI50 [35] was 18.4 µM (inactive) and the GI50 [58] was 13.6 µM (inactive). The GI50 [56] was 16.7 µM (inactive), the GI50 [36] was 16.6 µM (inactive) and the GI50 [37] was 14.7 µM (inactive). The GI50 [38] was 30.9 µM (inactive), the GI50 [39] was 15.6 µM (inactive) and the GI50 [40] was 15.7 µM (inactive). The GI50 [42] was 18.1 µM (inactive), the GI50 [43] was 13.8 µM (inactive) and the GI50 [44] was 15.9 µM (inactive). For the same compound, the GI50 [45] was 14.1 µM (inactive), the GI50 [46] was 14.5 µM (inactive) and the GI50 [47] was 18.5 µM (inactive). For the same compound, the GI50 [48] was 17.3 µM (inactive), the GI50 [50] was 16.2 µM (inactive) and the GI50 [51] was 26.7 µM (inactive).

For Cc1cccc(C)c1NC(=O)CCC(=O)NC(N)=S, the GI50 [1] was > 100 µM (inactive), the GI50 [2] was > 100 µM (inactive) and the GI50 [4] was > 100 µM (inactive). For the same compound, the GI50 [5] was > 100 µM (inactive), the GI50 [53] was > 100 µM (inactive) and the GI50 [57] was > 100 µM (inactive). The GI50 [54] was > 100 µM (inactive), the GI50 [7] was > 100 µM (inactive) and the GI50 [8] was > 100 µM (inactive). For the same compound, the GI50 [9] was > 100 µM (inactive), the GI50 [10] was > 100 µM (inactive) and the GI50 [11] was > 100 µM (inactive). The GI50 [12] was > 100 µM (inactive), the GI50 [13] was > 100 µM (inactive) and the GI50 [14] was > 100 µM (inactive). For the same compound, the GI50 [15] was > 100 µM (inactive), the GI50 [16] was > 100 µM (inactive) and the GI50 [17] was > 100 µM (inactive). The GI50 [18] was > 100 µM (inactive), the GI50 [19] was > 100 µM (inactive) and the GI50 [20] was > 100 µM (inactive). For the same compound, the GI50 [21] was > 100 µM (inactive), the GI50 [22] was > 100 µM (inactive) and the GI50 [23] was > 100 µM (inactive). For the same compound, the GI50 [24] was > 100 µM (inactive), the GI50 [25] was > 100 µM (inactive) and the GI50 [26] was > 100 µM (inactive). For the same compound, the GI50 [27] was > 100 µM (inactive), the GI50 [28] was > 100 µM (inactive) and the GI50 [29] was > 100 µM. For the same compound, the GI50 [30] was > 100 µM (inactive), the GI50 [31] was > 100 µM (inactive) and the GI50 [33] was > 100 µM (inactive). The GI50 [34] was > 100 µM (inactive), the GI50 [35] was > 100 µM (inactive) and the GI50 [58] was > 100 µM (inactive). For the same compound, the GI50 [56] was > 100 µM (inactive), the GI50 [36] was > 100 µM (inactive) and the GI50 [37] was > 100 µM (inactive). For the same compound, the GI50 [38] was > 100 µM (inactive), the GI50 [40] was > 100 µM (inactive) and the GI50 [41] was > 100 µM (inactive). For the same compound, the GI50 [42] was > 100 µM (inactive), the GI50 [43] was > 100 µM (inactive) and the GI50 [44] was > 100 µM (inactive). The GI50 [45] was > 100 µM (inactive), the GI50 [46] was > 100 µM (inactive) and the GI50 [48] was > 100 µM (inactive). The GI50 [49] was > 100 µM (inactive) and the GI50 [51] was > 100 µM (inactive).
